Results on one molecule are retold here after article PMC10667598 (Scientific Reports, 2023).

This assay has as its target T1, VcCBP (Vibrio cholerae, UniProt Q9KUA3).
T1 construct: gene VC_0620

The term Kd denotes the equilibrium constant for the complex coming apart. Low readings indicate tighter binding, high ones weaker binding.

T1 sequence (Q9KUA3 28-556 limits assumed): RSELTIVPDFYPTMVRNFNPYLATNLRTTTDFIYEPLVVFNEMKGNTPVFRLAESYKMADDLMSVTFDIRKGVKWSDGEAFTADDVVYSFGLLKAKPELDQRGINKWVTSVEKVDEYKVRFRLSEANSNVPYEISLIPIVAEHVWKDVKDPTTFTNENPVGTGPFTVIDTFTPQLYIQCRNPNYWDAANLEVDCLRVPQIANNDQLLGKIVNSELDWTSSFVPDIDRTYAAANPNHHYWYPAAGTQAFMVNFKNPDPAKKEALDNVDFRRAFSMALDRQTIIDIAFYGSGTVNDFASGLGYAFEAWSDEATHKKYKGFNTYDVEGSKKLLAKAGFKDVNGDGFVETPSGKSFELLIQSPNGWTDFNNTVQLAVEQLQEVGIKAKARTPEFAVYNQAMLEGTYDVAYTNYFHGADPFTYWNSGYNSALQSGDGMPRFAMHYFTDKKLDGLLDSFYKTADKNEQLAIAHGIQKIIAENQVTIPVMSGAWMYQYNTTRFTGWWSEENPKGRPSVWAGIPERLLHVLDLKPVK

On to `CC(=O)N[C@H]1[C@H](O[C@H]2[C@H](O)[C@@H](NC(C)=O)C(O)O[C@@H]2CO)O[C@H](CO)[C@@H](O)[C@@H]1O` (stereo partly shown) [(GlcNAc)2], for which the affinity, expressed as Kd, was 245 nM.
